Results taken from paper PMC3829776 (Nature chemical biology, 2013).

Target: T1, Adipose triglyceride lipase (ATGL) (Mus musculus, UniProt Q8BJ56)
T1 sequence (Q8BJ56 1-486): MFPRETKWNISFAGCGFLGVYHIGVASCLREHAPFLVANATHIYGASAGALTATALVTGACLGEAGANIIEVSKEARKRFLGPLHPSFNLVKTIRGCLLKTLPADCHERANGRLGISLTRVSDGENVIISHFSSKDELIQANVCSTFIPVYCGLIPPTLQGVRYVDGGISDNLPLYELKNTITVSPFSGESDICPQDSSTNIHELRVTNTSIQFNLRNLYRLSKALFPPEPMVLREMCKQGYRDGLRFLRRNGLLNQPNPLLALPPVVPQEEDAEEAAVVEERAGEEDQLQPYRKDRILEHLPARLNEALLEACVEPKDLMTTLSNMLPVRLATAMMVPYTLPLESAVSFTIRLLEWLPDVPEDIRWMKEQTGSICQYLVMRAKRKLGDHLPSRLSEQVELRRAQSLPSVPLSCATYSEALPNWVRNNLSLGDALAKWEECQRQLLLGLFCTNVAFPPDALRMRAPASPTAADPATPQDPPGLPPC
T1 sequence (Q9DBL9 1-351 partner): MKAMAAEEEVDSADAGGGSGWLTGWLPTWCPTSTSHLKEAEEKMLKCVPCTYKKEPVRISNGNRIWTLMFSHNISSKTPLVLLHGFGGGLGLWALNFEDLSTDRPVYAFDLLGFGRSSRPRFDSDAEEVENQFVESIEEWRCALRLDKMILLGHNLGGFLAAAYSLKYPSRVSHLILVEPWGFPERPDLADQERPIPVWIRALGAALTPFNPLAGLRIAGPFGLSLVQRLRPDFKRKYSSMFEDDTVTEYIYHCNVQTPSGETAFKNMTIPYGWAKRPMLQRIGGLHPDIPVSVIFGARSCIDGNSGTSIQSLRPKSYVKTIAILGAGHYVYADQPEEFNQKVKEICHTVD
Type: biochemical

Ki: 355 ± 48 nM
SMILES: CN(C)C(=O)Nc1cccc(-c2ccc(N(C)C)cc2)c1 [compound 4, Atglistatin]
